The results in this text go back to US20040242671A1, “Use of 2-oxo-1-pyrrolidine derivatives for the preparation of a drug” (priority 2001, published 2004).

Assay [1] deals with MPTP-lesioned marmoset model of Parkinson's disease. Kind of assay: Parkinsonian disability with Ropinirole, MPTP-lesioned marmoset (Example 3). The assay is classed as in vivo, marmosets (Callithrix jacchus). As to conditions: for Parkinsonian disability: Levetiracetam 13 mg/kg + Ropinirole 3.75 mg/kg. As for the experimental part: This study was designed to investigate whether Levetiracetam has a potential as an adjunctive anti-parkinsonian agent to dopamine replacement therapy in the 1-methyl-4-phenyl-1,2,3,6-tetrahydropyridine (MPTP)-lesioned marmoset model of Parkinson's disease. The effect of Levetiracetam on Ropinirole alleviation of parkinsonism symptoms was investigated. The study was performed on six adult marmosets (Callithrix jacchus; 4 female, 2 male). The marmosets were rendered parkinsonian by subcutaneous injection of 2 mg/kg MPTP for 5 consecutive days. The marmosets were allowed to recover for 18 weeks until their parkinsonism was stable. The degree of activity and disability before and after MPTP treatment were assessed using a combination of scales that measure locomotor activity, mobility, bradykinesia and posture. Animals were treated with L-DOPA 12 mg/kg b.i.d. for 6 weeks. After this time, animals were used for assessment of potential symptomatic antiparkinsonian therapy. All drugs were administered orally in a volume of 5 ml/kg via a syringe in the animal's home cage. The animals were immediately transferred to an experimental cage (60 cm×55 cm×75 cm, with the perch 25 cm from floor of cage) for behavioural assessment. Vehicle was apple juice in all cases. The doses were 3.75 mg/kg of Ropinirole in combination with Levetiracetam at 13, 30 and 60 mg/kg. Behaviour was assessed for 6 hours post drug administration. […] Behavioural test 1 (activity) was assessed every 5 minutes for 6 hours post drug administration. Behavioural tests 2 (parkinsonian disability) was assessed for 10 minutes every 30 minutes over the course of 6 hours, by post hoc analysis of video-recordings by an observer blinded to the treatment. The score given/achieved in each 10 minute time period was presented.

Assay [2] shares this test system. Briefly: Activity and on-time with Ropinirole, MPTP-lesioned marmoset (Example 3). The class given is in vivo, marmosets (Callithrix jacchus). The conditions noted are these: for "on-time" / Activity: P<0.01; for Enhancement of "on-time": six hour experiment. As to the method: This study was designed to investigate whether Levetiracetam has a potential as an adjunctive anti-parkinsonian agent to dopamine replacement therapy in the 1-methyl-4-phenyl-1,2,3,6-tetrahydropyridine (MPTP)-lesioned marmoset model of Parkinson's disease. The effect of Levetiracetam on Ropinirole alleviation of parkinsonism symptoms was investigated. The study was performed on six adult marmosets (Callithrix jacchus; 4 female, 2 male). The marmosets were rendered parkinsonian by subcutaneous injection of 2 mg/kg MPTP for 5 consecutive days. The marmosets were allowed to recover for 18 weeks until their parkinsonism was stable. The degree of activity and disability before and after MPTP treatment were assessed using a combination of scales that measure locomotor activity, mobility, bradykinesia and posture. Animals were treated with L-DOPA 12 mg/kg b.i.d. for 6 weeks. After this time, animals were used for assessment of potential symptomatic antiparkinsonian therapy. All drugs were administered orally in a volume of 5 ml/kg via a syringe in the animal's home cage. The animals were immediately transferred to an experimental cage (60 cm×55 cm×75 cm, with the perch 25 cm from floor of cage) for behavioural assessment. Vehicle was apple juice in all cases. The doses were 3.75 mg/kg of Ropinirole in combination with Levetiracetam at 13, 30 and 60 mg/kg. Behaviour was assessed for 6 hours post drug administration. 1) Activity—a quantitative assessment using computer-based activity monitors was obtained every 5 minutes for the duration of the experiment. Behavioural test 1 (activity) was assessed every 5 minutes for 6 hours post drug administration. Behavioural tests 2 (parkinsonian disability) was assessed for 10 minutes every 30 minutes over the course of 6 hours, by post hoc analysis of video-recordings by an observer blinded to the treatment. The score given/achieved in each 10 minute time period was presented. Cumulated data for parkinsonian disability, range of movement, bradykinesia and postural abnormalities were analysed with a non-parametric repeated measures one-way ANOVA (Friedman's test) followed by Dunn's multiple comparison test (Graphpad Prism version 3).

Where [3] appears, read: Levetiracetam 13 mg/kg + Ropinirole 3.75 mg/kg.
[4] abbreviates: Levetiracetam 30 mg/kg + Ropinirole 3.75 mg/kg.

For the compound `CC[C@@H](C(N)=O)N1CCCC1=O` [levetiracetam, (S)-α-ethyl-2-oxo-1-pyrrolidineacetamide], the “Potentiation of the alleviation of parkinsonism by Ropinirole” value in assay [1] (Levetiracetam 13 mg/kg + Ropinirole 3.75 mg/kg oral) is reported as “significantly potentiated”; in assay [1] (Levetiracetam 30 mg/kg + Ropinirole 3.75 mg/kg oral), “significantly potentiated”; in assay [1] (Levetiracetam 60 mg/kg + Ropinirole 3.75 mg/kg oral) it was “not”. Moreover, the Parkinsonian disability entry in assay [1] (during 3-4 hour time period, P<0.05) is “significantly reduced”; in assay [1] (over the experiment as a whole, P<0.05), “significantly reduced”. Moreover, the Range of movement result in assay [1] (Levetiracetam 30 mg/kg + Ropinirole 3.75 mg/kg, during the 0-1 hour time period, P<0.05) was “significantly increased”. Also, the “"on-time"” value in assay [2] (setting [3]) and in assay [2] (setting [4]) was “significantly increased” each time. Moreover, the Activity result in assay [2] (setting [3]) and in assay [2] (setting [4]) was “significantly increased” throughout. Besides, the “Enhancement of "on-time"” value in assay [2] (setting [3]) is reported as “approximately 82%”; in assay [2] (setting [4]), roughly 69%.
